Test results from ChEMBL document CHEMBL5053510, “Discovery of AS-1763: A Potent, Selective, Noncovalent, and Orally Available Inhibitor of Bruton's Tyrosine Kinase” (J Med Chem, 2021).

Target: Tyrosine-protein kinase BTK (Homo sapiens, UniProt Q06187)
Assay: Inhibition of human BTK-A using phosphorylated substrate in presence of ATP by microplate reader assay

Sequence of Tyrosine-protein kinase BTK (Q06187 whole entry): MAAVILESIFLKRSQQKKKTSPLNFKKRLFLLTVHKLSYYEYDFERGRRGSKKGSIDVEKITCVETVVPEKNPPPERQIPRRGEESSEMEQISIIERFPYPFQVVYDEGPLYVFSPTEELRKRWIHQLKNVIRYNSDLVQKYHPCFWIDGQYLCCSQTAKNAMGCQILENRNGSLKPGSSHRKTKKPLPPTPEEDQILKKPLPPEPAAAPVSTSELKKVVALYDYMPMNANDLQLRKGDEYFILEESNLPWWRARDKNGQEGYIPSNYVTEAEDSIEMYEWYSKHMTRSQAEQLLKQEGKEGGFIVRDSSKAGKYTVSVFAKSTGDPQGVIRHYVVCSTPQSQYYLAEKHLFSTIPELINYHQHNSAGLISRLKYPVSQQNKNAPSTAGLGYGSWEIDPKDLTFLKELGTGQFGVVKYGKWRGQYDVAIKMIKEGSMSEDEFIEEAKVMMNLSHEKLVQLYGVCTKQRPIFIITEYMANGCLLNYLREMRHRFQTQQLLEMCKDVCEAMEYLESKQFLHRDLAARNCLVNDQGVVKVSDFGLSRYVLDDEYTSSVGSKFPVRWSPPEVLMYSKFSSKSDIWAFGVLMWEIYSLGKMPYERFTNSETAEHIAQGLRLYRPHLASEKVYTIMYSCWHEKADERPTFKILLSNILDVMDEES

| Structure (SMILES) | IC50 [nM] |
| --- | --- |
| CN(C)C(=O)N1CC=C(c2cc3c(-c4cccc(-n5ccc6cc(C7CC7)cc(F)c6c5=O)c4CO)nc(N)nc3[nH]2)CC1 | 0.54 |
| Nc1nc(-c2cccc(-n3ccc4cc(C5CC5)cc(F)c4c3=O)c2CO)c2cc(-c3ccncc3)[nH]c2n1 | 0.14 |
